Experimental data as given in ChEMBL document CHEMBL5661982 (Mol Cancer Ther, 2012).
Calls of active or inactive are those of the source. No cut-off for these calls is given here.

Tests used:
NCI-H441 = assay: Inhibition of cell migration in HGF-stimulated human NCI-H441 cells over expressing c-Met incubated for 48 hrs by Matrigel based analysis; conditions: NCI-H441, 48 h
U-87MG ATCC [1] = conditions: Homo sapiens, dose 5-50 mg/kg, route po, time 3.0 day
GTL 16 = conditions: Homo sapiens, dose 1-30 mg/kg, route po
U-87MG ATCC [2] = conditions: Homo sapiens, dose 5-50 mg/kg, route po, time 3.0 day; remark: listed apart in the source
HT-29 [3] = assay: Antitumor activity against human HT-29 cells xenografted in athymic nu/nu mouse assessed as tumor growth inhibition at 50 mg/kg/day, po for 21 days relative to control; conditions: HT-29, po, 504 h, read-out: TGI
HUVEC [4] = assay: Antiproliferative activity against HGF-stimulated HUVEC cells assessed as reduction in cell viability after 48 to 72 hrs by MTT assay; conditions: Homo sapiens
U-87MG ATCC [5] = conditions: Homo sapiens, dose 5-50 mg/kg, route po, time 3.0 day; remark: listed apart in the source
U-87 MG [6] = conditions: Homo sapiens; U-87MG ATCC; dose 5-50 mg/kg, route po, time 3.0 day
MDA-MB-231 [7] = assay: Antiproliferative activity against human MDA-MB-231 cells over expressing c-Met assessed as reduction in cell viability after 48 to 72 hrs by MTT assay
[8] = molecular target: Macrophage-stimulating protein receptor (Mus musculus, UniProt Q62190); assay: Inhibition of Ron expressed in mouse NIH3T3 cells assessed as reduction in MSP-stimulated RON phosphorylation incubated for 1 hr by sandwich ELISA analysis
Macrophage-stimulating protein receptor, sequence (Q62190 25-305 limits assumed): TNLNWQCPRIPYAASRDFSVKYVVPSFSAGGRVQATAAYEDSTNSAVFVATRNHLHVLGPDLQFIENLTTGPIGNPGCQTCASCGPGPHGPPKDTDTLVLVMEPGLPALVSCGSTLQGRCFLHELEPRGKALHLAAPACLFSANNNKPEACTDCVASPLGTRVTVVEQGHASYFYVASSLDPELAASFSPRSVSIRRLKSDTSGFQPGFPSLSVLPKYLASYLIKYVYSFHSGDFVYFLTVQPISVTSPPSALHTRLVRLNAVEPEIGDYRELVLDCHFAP
Macrophage-stimulating protein receptor, sequence (Q62190 311-1378 limits assumed): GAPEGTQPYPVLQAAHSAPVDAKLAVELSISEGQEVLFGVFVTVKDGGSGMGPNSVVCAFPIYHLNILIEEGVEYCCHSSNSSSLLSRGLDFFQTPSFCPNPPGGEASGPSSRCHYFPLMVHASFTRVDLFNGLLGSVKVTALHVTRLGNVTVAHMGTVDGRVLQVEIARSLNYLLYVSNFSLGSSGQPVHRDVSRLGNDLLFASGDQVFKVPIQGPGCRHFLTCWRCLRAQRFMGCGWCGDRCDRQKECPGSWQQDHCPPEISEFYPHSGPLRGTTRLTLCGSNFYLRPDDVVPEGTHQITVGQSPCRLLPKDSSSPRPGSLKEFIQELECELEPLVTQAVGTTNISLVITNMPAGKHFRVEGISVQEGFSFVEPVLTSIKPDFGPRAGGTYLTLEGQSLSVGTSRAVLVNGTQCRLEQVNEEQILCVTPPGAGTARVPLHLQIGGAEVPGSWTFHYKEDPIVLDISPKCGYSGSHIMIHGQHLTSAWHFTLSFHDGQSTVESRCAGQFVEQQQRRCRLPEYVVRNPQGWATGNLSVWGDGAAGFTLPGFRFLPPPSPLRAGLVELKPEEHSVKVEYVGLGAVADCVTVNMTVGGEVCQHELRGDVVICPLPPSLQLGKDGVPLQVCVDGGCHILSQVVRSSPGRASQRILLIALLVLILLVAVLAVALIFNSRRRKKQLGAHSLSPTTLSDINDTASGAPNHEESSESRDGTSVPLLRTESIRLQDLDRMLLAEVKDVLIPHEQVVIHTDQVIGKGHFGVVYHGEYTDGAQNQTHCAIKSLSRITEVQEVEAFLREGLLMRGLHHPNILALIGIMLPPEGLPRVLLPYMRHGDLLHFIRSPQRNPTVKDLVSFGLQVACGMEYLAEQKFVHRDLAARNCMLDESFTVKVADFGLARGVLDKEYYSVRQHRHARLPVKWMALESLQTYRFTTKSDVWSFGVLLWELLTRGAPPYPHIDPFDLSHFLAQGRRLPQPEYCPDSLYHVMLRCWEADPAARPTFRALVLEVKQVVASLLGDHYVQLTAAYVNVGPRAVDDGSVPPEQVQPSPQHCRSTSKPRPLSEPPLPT

[9] = molecular target: Insulin-like growth factor 1 receptor (Mus musculus, UniProt Q60751); assay: Inhibition of IGF1R expressed in mouse NIH3T3 cells assessed as reduction in IGF-stimulated IGF1R phosphorylation incubated for 1 hr by sandwich ELISA analysis
Insulin-like growth factor 1 receptor, sequence (Q60751 31-737 limits assumed): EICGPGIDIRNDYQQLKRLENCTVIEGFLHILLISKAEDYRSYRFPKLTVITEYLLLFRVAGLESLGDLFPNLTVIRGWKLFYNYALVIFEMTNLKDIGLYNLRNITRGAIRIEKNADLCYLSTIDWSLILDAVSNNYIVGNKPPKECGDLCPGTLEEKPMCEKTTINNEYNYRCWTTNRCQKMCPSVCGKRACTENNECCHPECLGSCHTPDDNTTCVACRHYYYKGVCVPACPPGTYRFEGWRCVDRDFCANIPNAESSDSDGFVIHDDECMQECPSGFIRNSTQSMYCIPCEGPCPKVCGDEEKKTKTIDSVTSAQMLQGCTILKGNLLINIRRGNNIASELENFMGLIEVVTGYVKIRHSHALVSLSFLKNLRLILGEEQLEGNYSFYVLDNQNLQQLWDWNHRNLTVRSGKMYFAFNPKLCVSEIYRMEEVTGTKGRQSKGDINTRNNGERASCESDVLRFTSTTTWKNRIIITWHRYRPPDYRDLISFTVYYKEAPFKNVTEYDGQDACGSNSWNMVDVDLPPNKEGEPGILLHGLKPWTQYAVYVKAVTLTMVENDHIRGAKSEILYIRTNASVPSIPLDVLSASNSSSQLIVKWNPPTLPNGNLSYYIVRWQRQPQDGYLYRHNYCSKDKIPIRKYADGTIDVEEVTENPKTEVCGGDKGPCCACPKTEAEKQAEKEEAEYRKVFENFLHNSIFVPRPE
Insulin-like growth factor 1 receptor, sequence (Q60751 742-1373 limits assumed): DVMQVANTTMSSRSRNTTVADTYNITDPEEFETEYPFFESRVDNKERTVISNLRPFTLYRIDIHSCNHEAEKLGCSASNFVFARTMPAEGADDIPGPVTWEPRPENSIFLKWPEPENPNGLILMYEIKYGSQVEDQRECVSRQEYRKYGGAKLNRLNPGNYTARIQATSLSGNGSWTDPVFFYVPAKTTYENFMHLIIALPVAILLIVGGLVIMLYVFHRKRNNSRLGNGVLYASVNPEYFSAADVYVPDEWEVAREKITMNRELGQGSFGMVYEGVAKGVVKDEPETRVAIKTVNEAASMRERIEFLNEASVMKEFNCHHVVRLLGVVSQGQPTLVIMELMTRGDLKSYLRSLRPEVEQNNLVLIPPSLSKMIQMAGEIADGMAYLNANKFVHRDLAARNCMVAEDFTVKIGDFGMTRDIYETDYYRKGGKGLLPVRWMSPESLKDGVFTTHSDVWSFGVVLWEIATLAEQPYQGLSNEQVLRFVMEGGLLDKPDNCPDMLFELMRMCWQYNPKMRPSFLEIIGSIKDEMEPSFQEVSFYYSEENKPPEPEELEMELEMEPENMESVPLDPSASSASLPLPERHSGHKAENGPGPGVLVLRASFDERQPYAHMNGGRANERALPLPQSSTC

COLO 205 = assay: Antitumor activity against human COLO 205 cells xenografted in athymic nu/nu mouse assessed as tumor growth inhibition at 40 mg/kg/day, po for 18 days relative to control; conditions: COLO 205, po, 432 h, read-out: TGI
U-87MG ATCC [10] = conditions: Homo sapiens, dose 5-50 mg/kg, route po, time 3.0 day; remark: listed apart in the source
HT-29 [11] = assay: Antiproliferative activity against human HT-29 cells over expressing c-Met assessed as reduction in cell viability after 48 to 72 hrs by MTT assay
U-87 MG [12] = assay: Antitumor activity against human U-87 MG cells xenografted in athymic nu/nu mouse assessed as tumor growth inhibition at 30 mg/kg, po for 9 days relative to control; conditions: 216 h, read-out: TGI
[13] = molecular target: Hepatocyte growth factor receptor (Canis lupus familiaris, UniProt Q75ZY9); assay: Inhibition of c-Met phosphorylation in HGF-stimulated dog MDCK cells incubated for 1 hr by sandwich ELISA analysis
GTL 16 cell line [14] = assay: animal or person; conditions: Mus musculus, GTL 16, po, 384 h, read-out: TGI
Description: Antitumor activity against human GTL 16 cells xenografted in athymic nu/nu mouse assessed as tumor growth inhibition at 30 mg/kg, po administered for 16 days relative to control

SW-620 = assay: Antiproliferative activity against human SW620 cells over expressing c-Met assessed as reduction in cell viability after 48 to 72 hrs by MTT assay
U-87MG ATCC [15] = conditions: Homo sapiens, dose 5-50 mg/kg, route po, time 3.0 day; remark: listed apart in the source
U-87 MG [16] = assay: Antitumor activity against human U-87 MG cells xenografted in athymic nu/nu mouse assessed as tumor growth inhibition at 0.3 mg/kg, po for 9 days relative to control; conditions: 216 h, read-out: TGI
MDA-MB-231 [17] = assay: Antitumor activity against human MDA-MB-231 cells xenografted in athymic nu/nu mouse assessed as tumor growth inhibition at 40 mg/kg/day, po for 14 days relative to control; conditions: MDA-MB-231, po, 336 h, read-out: TGI
U-87MG ATCC [18] = conditions: Homo sapiens, dose 5-50 mg/kg, route po, time 3.0 day; remark: listed apart in the source
HCC1143 = assay: Antiproliferative activity against human HCC1143 cells over expressing c-Met assessed as reduction in cell viability after 48 to 72 hrs by MTT assay
DLD-1 = assay: Antiproliferative activity against human DLD-1 cells over expressing c-Met assessed as reduction in cell viability after 48 to 72 hrs by MTT assay
PC-3 = assay: Antiproliferative activity against human PC-3 cells over expressing c-Met assessed as reduction in cell viability after 48 to 72 hrs by MTT assay
Insulin receptor = Insulin receptor (Homo sapiens, UniProt P06213); assay: Inhibition of Insulin receptor expressed in HEK293 cells assessed as reduction insulin-stimulated INSR phosphorylation incubated for 1 hr by sandwich ELISA analysis
GTL 16 cell line [19] = assay: Antitumor activity against human GTL 16 cells xenografted in athymic nu/nu mouse assessed as tumor growth inhibition at 5 mg/kg, sc minipump administered for 14 days relative to control; conditions: GTL 16, 336 h, read-out: TGI
HUVEC [20] = assay: Inhibition of cell invasion in HGF-stimulated HUVEC cells incubated for 48 hrs by Matrigel based analysis; conditions: Homo sapiens
[21] = Inhibition of c-Met T11010I mutant phosphorylation in human HOP-92 cells assessed as reduction in HGF-stimulated c-Met phosphorylation incubated for 1 hr by ELISA analysis; conditions: HOP-92, 1 h
[22] = molecular target: Hepatocyte growth factor receptor (Mus musculus, UniProt P16056); assay: Inhibition of c-Met phosphorylation in HGF-stimulated mIMCD3 cells incubated for 1 hr by sandwich ELISA analysis
Hepatocyte growth factor receptor (Mus musculus, UniProt P16056), sequence (P16056 whole entry): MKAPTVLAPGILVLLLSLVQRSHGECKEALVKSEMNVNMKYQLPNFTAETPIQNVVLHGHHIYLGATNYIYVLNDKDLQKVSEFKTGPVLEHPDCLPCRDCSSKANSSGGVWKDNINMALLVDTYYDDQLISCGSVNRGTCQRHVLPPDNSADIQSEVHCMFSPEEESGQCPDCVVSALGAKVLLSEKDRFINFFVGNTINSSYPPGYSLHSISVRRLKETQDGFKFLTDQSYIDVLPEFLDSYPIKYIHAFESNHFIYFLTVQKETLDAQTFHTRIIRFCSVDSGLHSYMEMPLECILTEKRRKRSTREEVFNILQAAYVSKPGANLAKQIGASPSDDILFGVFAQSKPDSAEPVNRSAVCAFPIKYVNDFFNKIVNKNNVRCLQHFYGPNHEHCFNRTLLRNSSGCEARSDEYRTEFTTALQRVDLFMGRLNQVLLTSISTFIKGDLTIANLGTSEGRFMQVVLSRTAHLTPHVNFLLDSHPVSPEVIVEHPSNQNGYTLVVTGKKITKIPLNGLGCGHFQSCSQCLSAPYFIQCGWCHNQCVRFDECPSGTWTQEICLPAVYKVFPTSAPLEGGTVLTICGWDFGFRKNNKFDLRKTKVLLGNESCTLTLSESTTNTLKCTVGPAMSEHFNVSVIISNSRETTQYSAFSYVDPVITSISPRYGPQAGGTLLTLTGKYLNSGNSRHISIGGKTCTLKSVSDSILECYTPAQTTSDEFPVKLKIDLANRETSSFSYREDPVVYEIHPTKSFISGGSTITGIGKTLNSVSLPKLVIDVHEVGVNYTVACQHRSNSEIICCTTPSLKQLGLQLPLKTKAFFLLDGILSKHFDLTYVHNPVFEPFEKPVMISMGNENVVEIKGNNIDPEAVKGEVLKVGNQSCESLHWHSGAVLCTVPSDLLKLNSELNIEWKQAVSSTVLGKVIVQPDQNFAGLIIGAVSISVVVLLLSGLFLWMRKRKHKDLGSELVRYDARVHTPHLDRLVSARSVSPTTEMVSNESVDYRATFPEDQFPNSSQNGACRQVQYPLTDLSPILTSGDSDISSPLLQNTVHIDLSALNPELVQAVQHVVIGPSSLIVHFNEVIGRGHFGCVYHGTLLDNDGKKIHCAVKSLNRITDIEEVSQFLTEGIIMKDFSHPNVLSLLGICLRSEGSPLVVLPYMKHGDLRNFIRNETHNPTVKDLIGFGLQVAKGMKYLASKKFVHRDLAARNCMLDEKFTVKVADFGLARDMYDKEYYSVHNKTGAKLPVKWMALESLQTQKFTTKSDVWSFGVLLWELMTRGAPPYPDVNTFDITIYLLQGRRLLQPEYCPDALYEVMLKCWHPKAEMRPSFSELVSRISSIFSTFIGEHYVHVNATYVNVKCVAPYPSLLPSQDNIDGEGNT

GTL 16 cell line [23] = assay: Antitumor activity against human GTL 16 cells xenografted in athymic nu/nu mouse assessed as tumor growth inhibition at 1.5 mg/kg, sc minipump administered for 14 days relative to control; conditions: GTL 16, 336 h, read-out: TGI
HT-29 [24] = conditions: Homo sapiens, dose 50.0 mg/kg/day, route po, time 21.0 day
U-87 MG [25] = assay: Antiproliferative activity against human U-87 MG cells over expressing c-Met assessed as reduction in cell viability after 48 to 72 hrs by MTT assay

## OCCn1cc(-c2cnc3nnn(Cc4ccc5ncccc5c4)c3n2)cn1 [PF-04217903]
NCI-H441
  IC50: 11 nM
U-87MG ATCC [1]
  inhibition: Active
GTL 16
  inhibition: Active
U-87MG ATCC [2]
  inhibition: Active
HT-29 [3]
  inhibition in vivo at 50 mg/kg/day: 40%
HUVEC [4]
  IC50: 12.3 nM
U-87MG ATCC [5]
  inhibition: Active
U-87 MG [6]
  inhibition: Active
MDA-MB-231 [7]
  IC50: > 10 µM
[8]
  IC50: > 10 µM
[9]
  IC50: > 10 µM
COLO 205
  inhibition in vivo at 40 mg/kg/day: 44%
U-87MG ATCC [10]
  inhibition: inactive
HT-29 [11]
  IC50: > 10 µM
U-87 MG [12]
  inhibition in vivo at 30 mg/kg: 84%
[13]
  IC50: 9.5 nM
GTL 16 cell line [14]
  inhibition in vivo at 30 mg/kg: 100%
SW-620
  IC50: > 10 µM
U-87MG ATCC [15]
  inhibition: Active
U-87 MG [16]
  inhibition in vivo at 0.3 mg/kg: 20%
MDA-MB-231 [17]
  inhibition in vivo at 40 mg/kg/day: 43%
U-87MG ATCC [18]
  inhibition: inactive
HCC1143
  IC50: > 10 µM
DLD-1
  IC50: > 10 µM
PC-3
  IC50: > 10 µM
Insulin receptor
  IC50: > 10 µM
GTL 16 cell line [19]
  inhibition in vivo at 5 mg/kg: 75%
HUVEC [20]
  IC50: 27 nM
[21]
  IC50: 6.7 nM
[22]
  IC50: 6.9 nM
GTL 16 cell line [23]
  inhibition in vivo at 1.5 mg/kg: 63%
HT-29 [24]
  inhibition: Active
U-87 MG [25]
  IC50: > 10 µM
